Measurements reported in patent US20160082071A1, “METHODS OF TREATING MYELOID LEUKEMIA” (BIOKINE THERAPEUTICS LTD., priority 2013, published 2016).
Like-named read-outs stand apart in the source and are kept apart here.

What was measured:
[1] = test system: Normal C57BL/6 female mice; details: mouse, in vivo
Protocol: (§1) Lyophilized 4F-benzoyl-TN14003 was manufactured by MSD N.V. The compound was dissolved with water for injection (WFI) at a final stock concentration of 25 mg/ml and stored at −20° C. until use. Before injection to the mice, 4F-benzoyl-TN14003 was thawed and diluted with PBS to final concentration of 5 mg/ml. Actual dosing solutions were prepared by diluting the 5 mg/ml stock solution (total dose including salt) in PBS just before the injection. 4F-benzoyl-TN14003 was administered at a constant dose volume of 200 μL.
(§2) Cytarabine (Cytosine arabinoside; ARA-C) was purchased from Hadassah cytotoxica pharmacy (Israel). ARA-C was provided from Hadassah cytotoxica pharmacy at concentration of 100 mg/ml. Actual dose solution (200 mg/Kg) was prepared by diluting the 100 mg/ml stock solution in PBS.
(§3) Normal C57BL/6 female mice, 9-10 week old, about 20 gram in weight, were used. The animals were kept in groups of a maximum of 10 animals in polysulphone cages (425×266×185 mm), fitted with solid bottoms and filled with wood shavings as bedding material. The animals were provided ad libitum a commercial rodent diet (Harlan Teklad™ Ra/Mouse Diet) and allowed free access to autoclaved water, supplied to each cage via polysulphone bottles with stainless steel sipper-tubes. From the first day of ARA-C dosing wet food was placed at the bottom of the cage. Ten animals were randomly allocated per treatment group.
(§4) The treatments groups were as followed (10 animals per treatment group): • Group A: untreated control. • Group B: animals administered with 4FB-TN14003 at a dose of 2.4, 4.8, 9.6 or 12 mg/Kg daily from day 1 to day 7. • Group C: animals administered with ARA-C at a dose of 200 mg/Kg daily from day 3 to 7. • Group D: animals administered with 4FB-TN14003 as in group B (at a dose of 2.4, 4.8, 9.6 or 12 mg/Kg daily from day 1 to day 7) and also with ARA-C as in group C (at a dose of 200 mg/Kg daily from day 3 to 7).
(§5) 4FB-TN14003 was injected SC at a constant dose volume of 200 μL/mouse (based on the latest determined body weight-average of 20 gr), once daily for 7 consecutive days (days 1-7). Control mice were injected with the vehicle (PBS) only under the same regimen.
(§6) ARA-C was diluted in PBS and injected SC at a constant dose of 200 mg/kg and at constant volume of 200 μL/mouse, once daily for 5 consecutive days (days 3-7). In the combination groups (groups 7-10) ARA-C was injected 4 hours following 4FB-TN14003 injection.
(§7) Blood samples were collected on day 12 of the experiment. The mice in each group were subjected to terminal bleeding from the orbital sinus. Blood samples (ca. 400-500 μl) were dispensed into special serum gel separation tubes (BD Microgard™) centrifuged at 13,000 rpm for 8 minutes at RT and saved the supernatant sera. Sera samples (at least 220 μl) were kept at 2-8° C. to complete blood counts (CBC).

human AML xenografts = details: subcutaneous injections; Beider et al., Exp. Hematol. 2011; cited from earlier work
[2] = test system: malignant cells of hematopoietic origin including AML; details: cited from earlier work
[3] = test system: Normal C57BL/6 female mice; assay: Toxicity assay: complete blood counts in mice treated with 4F-benzoyl-TN14003, ARA-C or both
Protocol: as §1, §2, §3, §4, §5, §6, §7

Row | hematocrit [1] | hemoglobin (HGB) [1] | lymphocyte Abs [1] | platelets [1] | red blood-cells (RBC) [1] | Molecule | growth of human AML xenografts (human AML xenografts) | cytotoxicity toward malignant cells of hematopoietic origin including AML [2] | levels of platelets ([3]; ARA-C alone versus ARA-C in combination with 4F-benzoyl-TN14003, FIG. 5) | levels of neutrophil Abs ([3]; ARA-C alone versus ARA-C in combination with 4F-benzoyl-TN14003, FIG. 7) | white blood-cells (WBC) ([3]; compared with untreated control, blood collected day 12 (five days after treatment), ARA-C 200 mg/Kg SC days 3-7, 4F-benzoyl-TN14003 2.4, 4.8, 9.6 or 12 mg/Kg SC days 1-7, FIG. 1) | red blood-cells (RBC) ([3]; compared with untreated control, blood collected day 12, FIG. 2) | hematocrit ([3]; compared with untreated control, blood collected day 12, FIG. 3) | hemoglobin (HGB) ([3]; compared with untreated control, blood collected day 12, FIG. 4) | platelets ([3]; compared with untreated control, blood collected day 12, FIG. 5) | lymphocyte Abs ([3]; compared with untreated control, blood collected day 12, FIG. 6) | neutrophil Abs ([3]; compared with untreated control, blood collected day 12, FIG. 7)
1 | did not cause a reduction | did not cause a reduction | did not cause a reduction | did not cause a reduction | did not cause a reduction | 4F-benzoyl-Arg-Arg-Nal-Cys-Tyr-Cit-Lys-DLys-Pro-Tyr-Arg-Cit-Cys-Arg-NH2 [4F-benzoyl-TN14003] | significantly reduced | CXCR4-dependent preferential cytotoxicity | – | – | – | – | – | – | – | – | –
2 | – | – | – | – | – | Nc1ccn([C@@H]2O[C@H](CO)[C@@H](O)[C@@H]2O)c(=O)n1 [ARA-C, Cytarabine] | – | – | equally reduced levels | equally reduced levels | drastic reduction | drastic reduction | drastic reduction | drastic reduction | drastic reduction | drastic reduction | drastic reduction
